GI50 and TGI data for 7 molecules are collected here from PubChem BioAssay (NCI).

Several values for one entry are separate records, joined by “and”; a condition that tells them apart may be missing. Identical values can stand only once.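 A five-concentration, 48-hour dose response in 96-well plates underlies each endpoint, interpolated linearly between surrounding concentrations. GI50 = concentration required for 50% inhibition of growth. At the TGI there is no net growth.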

Among the test systems are U251 CNS; CCRF-CEM leukemia; HT29 colon; OVCAR-3 ovarian; K-562 leukemia; SK-MEL-2 melanoma; SW-620 colon; NCI-H522 lung; SN12C renal; MDA-MB-231 breast.
Assay in all cases: inhibition of tumour cell growth, NCI panel, 48 h

For the molecule `CCNC(=O)C#Cc1ccc2c(C(=Nc3ccc(CN(C)C)cc3)c3ccccc3)c(O)[nH]c2c1`, the GI50 with U251 CNS is 0.376 µM; in the assay on CCRF-CEM leukemia, 0.00204 µM; in the assay with HT29 colon, 0.013 µM; in the assay with OVCAR-3 ovarian, 0.752 µM; in the assay with K-562 leukemia, 0.344 µM; with SK-MEL-2 melanoma, 0.0323 µM. In addition, the GI50 is 0.0156 µM in the assay on SW-620 colon, 1.26 µM in the assay on NCI-H522 lung, 0.0671 µM with SN12C renal and 0.0295 µM in the assay with MDA-MB-231 breast. For the same molecule, the TGI is 2.9 µM with U251 CNS; 5.58 µM in the assay on CCRF-CEM leukemia; 1.39 µM in the assay with HT29 colon; more than 10 µM in the assay on OVCAR-3 ovarian; 3.92 µM in the assay on K-562 leukemia; 0.228 µM with SK-MEL-2 melanoma. Further, the TGI is 1.54 µM in the assay on SW-620 colon, more than 5.39 µM with NCI-H522 lung, 1.59 µM with SN12C renal and 0.502 µM in the assay with MDA-MB-231 breast.

Take `COc1cc(-c2nc3sccn3c2-c2ccnc(NCCNS(=O)(=O)c3ccc(F)cc3)n2)ccc1F`: the GI50 in the assay on U251 CNS is 4.23 µM; in the assay on CCRF-CEM leukemia it was 0.643 µM; in the assay on HT29 colon, 1.64 µM; in the assay with OVCAR-3 ovarian, 3.23 µM; with K-562 leukemia, 1.53 µM; with SK-MEL-2 melanoma, 2.24 µM. For the same molecule, the GI50 with SW-620 colon was 5.05 µM; in the assay with NCI-H522 lung, 2.12 µM; with SN12C renal it was 1.89 µM; in the assay on MDA-MB-231 breast it was 2.35 µM. The TGI is more than 100 µM in the assay on U251 CNS; more than 100 µM in the assay on CCRF-CEM leukemia; more than 100 µM with HT29 colon; more than 100 µM with OVCAR-3 ovarian; more than 100 µM in the assay on K-562 leukemia; 7.27 µM with SK-MEL-2 melanoma. Further, the TGI with SW-620 colon, in the assay on NCI-H522 lung, in the assay on SN12C renal and in the assay on MDA-MB-231 breast was more than 100 µM in each case.

In the case of `CN1CCN(C(=O)COc2ccc(C34CC5CC(CC(C5)C3)C4)cc2)CC1`, the GI50 was 10.8 µM with U251 CNS; 5.44 µM with CCRF-CEM leukemia; 4.66 µM in the assay on HT29 colon; 13.4 µM in the assay on OVCAR-3 ovarian; 4.38 µM in the assay with K-562 leukemia; 15.5 µM with SK-MEL-2 melanoma. The GI50 in the assay on SW-620 colon was 12.8 µM; in the assay on NCI-H522 lung it was 15 µM; in the assay on SN12C renal it was 12.6 µM; in the assay on MDA-MB-231 breast, 13 µM. The TGI in the assay with U251 CNS was determined as 25 µM; in the assay on CCRF-CEM leukemia, 27.8 µM; in the assay with HT29 colon, 19.1 µM; with OVCAR-3 ovarian, 27.3 µM; in the assay with K-562 leukemia it was 46.5 µM; with SK-MEL-2 melanoma, 30.4 µM. Besides, the TGI in the assay with SW-620 colon was found to be 29.6 µM; in the assay on NCI-H522 lung, 33.4 µM; with SN12C renal, 26.1 µM; in the assay with MDA-MB-231 breast it was 27.8 µM.

As for `O=C(O)C(Cl)Cl`, the GI50 is 7690 µM and > 10000 µM with U251 CNS; 4920 µM and > 4680 µM in the assay with CCRF-CEM leukemia; 7200 µM and > 10000 µM in the assay on HT29 colon; 4710 µM and > 10000 µM in the assay with OVCAR-3 ovarian; 6300 µM and > 10000 µM in the assay on K-562 leukemia; 8200 µM and > 10000 µM in the assay with SK-MEL-2 melanoma. Also, the GI50 with SW-620 colon is more than 10000 µM; with NCI-H522 lung it was 8040 µM and > 10000 µM; with SN12C renal, 8180 µM and > 10000 µM; with MDA-MB-231 breast, more than 10000 µM. Further, the TGI in the assay with U251 CNS, in the assay with CCRF-CEM leukemia, in the assay with HT29 colon, with OVCAR-3 ovarian, in the assay on K-562 leukemia and in the assay with SK-MEL-2 melanoma was more than 10000 µM each time. Also, the TGI in the assay on SW-620 colon, with NCI-H522 lung, with SN12C renal and in the assay with MDA-MB-231 breast was more than 10000 µM each time.

In the case of `O=C1c2c(F)c(F)c(F)c(F)c2C(=O)N1c1ccc(F)cc1F`, the GI50 in the assay on U251 CNS is 2.55 µM; with CCRF-CEM leukemia it was 0.958 µM; with HT29 colon, 7.36 µM; with OVCAR-3 ovarian it was 9.17 µM; in the assay with K-562 leukemia, 2.58 µM; in the assay with SK-MEL-2 melanoma it was 34.4 µM. Also, the GI50 in the assay on SW-620 colon was 2.11 µM; in the assay with NCI-H522 lung, 6.58 µM; in the assay on SN12C renal it was 2.95 µM; in the assay on MDA-MB-231 breast it was 5.53 µM. The TGI with U251 CNS was 7.95 µM; in the assay with CCRF-CEM leukemia it was 6.82 µM; in the assay with HT29 colon it was more than 100 µM; in the assay on OVCAR-3 ovarian, 27.5 µM; in the assay with K-562 leukemia, more than 33.9 µM; in the assay on SK-MEL-2 melanoma it was more than 100 µM. In addition, the TGI in the assay with SW-620 colon was 7.22 µM; in the assay with NCI-H522 lung it was more than 25 µM; with SN12C renal, 10.1 µM; in the assay on MDA-MB-231 breast, 19.5 µM.

As for `COc1cc2c(cc1OC)-c1cc(OC)c(OC)cc1C(CN(C)C)C2` (stereo not given), the GI50 in the assay with U251 CNS, in the assay with CCRF-CEM leukemia, in the assay on HT29 colon, in the assay with OVCAR-3 ovarian, in the assay with K-562 leukemia and in the assay on SK-MEL-2 melanoma was more than 10 µM throughout. For the same molecule, the GI50 in the assay on SW-620 colon, in the assay on NCI-H522 lung, with SN12C renal and in the assay with MDA-MB-231 breast was more than 10 µM in each case. For the same molecule, the TGI with U251 CNS, in the assay with CCRF-CEM leukemia, in the assay on HT29 colon, in the assay on OVCAR-3 ovarian, in the assay on K-562 leukemia and with SK-MEL-2 melanoma was more than 10 µM each time. Moreover, the TGI in the assay with SW-620 colon, with NCI-H522 lung, in the assay on SN12C renal and with MDA-MB-231 breast was more than 10 µM each time.

For `COc1ccc2ncnc(Nc3ccc(OCc4ccccc4)cc3)c2c1`, the GI50 in the assay on U251 CNS is 8.54 µM; with CCRF-CEM leukemia, 8.49 µM; in the assay on HT29 colon it was 6.54 µM; in the assay on OVCAR-3 ovarian it was 7.08 µM; with K-562 leukemia, 9.01 µM; in the assay on SK-MEL-2 melanoma it was 9.97 µM. The GI50 was 9.04 µM in the assay with SW-620 colon, 4.95 µM with NCI-H522 lung, 9.14 µM in the assay on SN12C renal and 4.6 µM in the assay with MDA-MB-231 breast. Further, the TGI in the assay with U251 CNS is more than 25 µM; in the assay with CCRF-CEM leukemia it was more than 25 µM; with HT29 colon, more than 25 µM; in the assay on OVCAR-3 ovarian, more than 23.1 µM; in the assay with K-562 leukemia, more than 25 µM; in the assay on SK-MEL-2 melanoma, more than 25 µM. The TGI in the assay with SW-620 colon was more than 25 µM; in the assay with NCI-H522 lung, more than 17.1 µM; in the assay with SN12C renal, more than 25 µM; in the assay with MDA-MB-231 breast, 11.1 µM.
